Format in all cases: in vivo
Assay [1] relates to PC-3 cells. In words: mouse PC-3 prostate xenograft model, subcutaneous tumor burden. The note with it: for End Volume / Start Volume: 10 mg/kg/day (table); for End Volume: after 25 days of treatment; for Start Volume: tumor volume at start.
Procedure: A study was performed in mouse PC-3 prostate xenograft models to assess the ability of the methods of the present invention to reduce subcutaneous tumor burden. In the study male athymic nude (Nu/Nu) mice were implanted with PC-3 cells (1×10^7 cells) into the flank of the left leg. When the average tumor size reached 200 mm^3 animals were randomly assigned to treatment groups (N=12/group). Mice were implanted with Alzet mini pumps containing either the HCl salt of compound 1 or vehicle (30% HPBCD in WFI). The mini pumps were surgically implanted subcutaneously on the flank of the right leg, contralateral to the site of the tumor implant. The pumps were replaced with new pumps every 6th day of the study. In the study, mice received either vehicle or the test compound at 10.6 mg/kg/day. Tumor volumes for each group were measured at regular intervals during treatment. The animals were sacrificed after 25 days of treatment and tumor volumes were compared.
A study was performed in mouse PC-3 prostate xenograft models to assess the ability of the methods of the present invention to reduce subcutaneous tumor burden. Male athymic nude (Nu/Nu) mice were implanted with PC-3 cells (1×10^7 cells) into the flank of the left leg. When the average tumor size reached 200 mm^3, animals were randomly assigned to treatment groups (N=12/group). […] The mini pumps were surgically implanted subcutaneously on the flank of the right leg, contralateral to the site of the tumor implant. The pumps were replaced with new pumps every 6th day of the study. Mice received either vehicle or the test compound at 10.6 mg/kg/day. Tumor volumes for each group were measured at regular intervals during treatment. The animals were sacrificed after 25 days of treatment, and tumor volumes were compared.
Assay [2] concerns SKOV-3 cells. The assay can be described thus: mouse SKOV-3 xenograft model, subcutaneous tumor burden. The note with it: for End Volume / Start Volume: nude mice, HCl salt via s.c. Alzet mini pump; for End Volume: treatment lasted 74 days; for Start Volume: tumor volume at start. The protocol: When the average tumor size reached 50 mm^3, animals were randomly assigned to treatment groups. […] Tumor volumes of the two groups were measured at regular intervals during treatment, which lasted 74 days.

For assay [3], the system named is PAN-02 cells. In words: mouse PAN-02 xenograft model, subcutaneous tumor burden. The text has this: The PAN-02 cells were maintained by in vivo passaging in C57/1316 mice. Male C57/B16 mice were implanted with PAN-02 cells (8 mm^3 tumor fragments) into the inguinal area. Each mouse was implanted with an 8 mm^3 tumor PAN-02 tumor fragment collected from a donor mouse. The tumor fragment was loaded onto a 16 G trocar and implanted by piercing through the skin in the right inguinal area. The animals were randomly assigned to treatment groups (N=14/group). […] Mice received either vehicle or the test compound at 20 mg/kg/day. Tumor volumes of the two groups were measured at regular intervals during treatment, which lasted 32 days.

The mark [4] stands for this setting: PC-3 xenograft (Example 5), nude mice, HCl salt of cyclopamine via s.c. Alzet mini pump.
The mark [5] stands for this setting: PC-3 xenograft, male athymic nude mice, HCl salt via s.c. Alzet mini pump, continuous.

Regarding `CC1=C2C[C@H]3[C@@H](CC=C4C[C@@H](O)CC[C@@]43C)[C@@H]2CC[C@]12O[C@@H]1C[C@H](C)CN[C@H]1[C@H]2C` [Cyclopamine, reference compound], in assay [1] (setting [4]), the “End Volume” value stood at 448 ± 152 mm^3 and the “Start Volume” value is 170 ± 29 mm^3.

As to `CC1=C2C[C@H]3[C@@H](CCC4=CC(=O)CC[C@@]43C)[C@@H]2CC[C@@]2(C1)O[C@@H]1C[C@H](C)CN[C@H]1[C@H]2C` [Compound 1], the “End Volume” value came out at 444 ± 101 mm^3 in assay [1] (setting [5]); 186 ± 57 mm^3 in assay [2] (10.6 mg/kg/day); 52 ± 11 mm^3 in assay [2] (20 mg/kg/day); 481 ± 64 mm^3 in assay [3] (PAN-02 tumor fragments in male C57/B16 mice, HCl salt via s.c. Alzet mini pump, 20 mg/kg/day, treatment lasted 32 days). Further, the “Start Volume” value came out at 188 ± 17 mm^3 in assay [1] (setting [5]); 57 ± 5 mm^3 in assay [2] (10.6 mg/kg/day); 31 ± 4 mm^3 in assay [2] (20 mg/kg/day); 82 ± 8 mm^3 in assay [3] (PAN-02 tumor fragments in male C57/B16 mice, HCl salt via s.c. Alzet mini pump, 20 mg/kg/day, tumor volume at start). Further, the “growth of the tumors” value in assay [1] (PC-3 xenograft, continuous doses 10.6 mg/kg/day, 25 days, versus vehicle) is recorded as “significantly reduced”; in assay [2] (continuous doses 10.6 or 20 mg/kg/day, 74 days, versus vehicle) it was “significantly reduced”; in assay [3] (PAN-02 model, continuous doses 20 mg/kg/day, 32 days, versus vehicle), “significantly reduced”.

The values above are taken from patent US20110034498A1, “DOSING REGIMENS FOR THE TREATMENT OF CANCER” (priority 2006, published 2011).
